Legend:
human M3 receptor = human M3 receptor (Homo sapiens (Human), UniProt P20309); assay: Radioligand (tritiated N-methylscopolamine) binding assay, M3; conditions: CHO cell membranes expressing human M3; 1.5 nM tritiated N-methylscopolamine; 90 min, 37° C.; read-out: Ki against M3 receptor (Table 21, M3)
Method: (§1) Binding affinity (Ki) of compounds was measured by inhibition of radioligand binding to membranes from CHO cells expressing human M1, M2, M3, M4 and M5 receptors. Membranes were prepared by nitrogen cavitation and differential centrifugation as previously described (Hoare et al., Mol. Pharmacol. 2003 March; 63(3): 751-65). The radioligand employed was tritiated N-methylscopolamine, used at a concentration of 1.5 nM. A dose-response of twelve concentrations of compound was used, ranging from 10 μM to […]. The assay buffer was 50 mM HEPES, 100 mM NaCl, 5 mM MgCl2, 1 mM ethylenediaminetetraacetic acid, pH-adjusted to pH 7.4. Membranes, radioligand and compound were incubated together for 90 minutes at 37° C., in a total volume of 150 μl in a 96-well plate. Receptor-bound radioligand was then collected by harvesting the assay over glass fiber filters pretreated with polyethylenimine to trap the cell membranes, using rapid vacuum filtration. Harvesting and radioactivity counting was conducted as previously described (see, e.g., Hoare et al., Mol. Pharmacol. 2003 63(3):751-65); Erratum at Mol. Pharmacol. 2005 July; 68(1): 260).

human M5 receptor = human M5 receptor (Homo sapiens (Human), UniProt P08912); assay: Radioligand (tritiated N-methylscopolamine) binding assay, M5; conditions: CHO cell membranes expressing human M5; 1.5 nM tritiated N-methylscopolamine; 90 min, 37° C.; read-out: Ki against M5 receptor (Table 21, M5)
Method: as §1

human M4 receptor = human M4 receptor (Homo sapiens (Human), UniProt P08173); assay: Radioligand (tritiated N-methylscopolamine) binding assay, M4; conditions: Ki against the M4 receptor; membranes from CHO cells expressing human M4; tritiated N-methylscopolamine 1.5 nM; read-out: Ki
Procedure, shortened: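 Inhibition of radioligand binding gave Ki. The assay used recombinant CHO membranes, 1.5 nM tracer, a 90 min/37 °C incubation and pH 7.4 buffer.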

human M2 receptor = human M2 receptor (Homo sapiens (Human), UniProt P08172); assay: Radioligand (tritiated N-methylscopolamine) binding assay, M2; conditions: CHO cell membranes expressing human M2; 1.5 nM tritiated N-methylscopolamine; 90 min, 37° C.; read-out: Ki against M2 receptor (Table 21, M2)
Method: as §1

human M1 receptor = human M1 receptor (Homo sapiens (Human), UniProt P11229); assay: Radioligand (tritiated N-methylscopolamine) binding assay, M1; conditions: CHO cell membranes expressing human M1; 1.5 nM tritiated N-methylscopolamine; 90 min, 37° C.; read-out: Ki against M1 receptor (Table 21, M1)
Method: as §1

Chain of human M2 receptor (P08172 whole entry): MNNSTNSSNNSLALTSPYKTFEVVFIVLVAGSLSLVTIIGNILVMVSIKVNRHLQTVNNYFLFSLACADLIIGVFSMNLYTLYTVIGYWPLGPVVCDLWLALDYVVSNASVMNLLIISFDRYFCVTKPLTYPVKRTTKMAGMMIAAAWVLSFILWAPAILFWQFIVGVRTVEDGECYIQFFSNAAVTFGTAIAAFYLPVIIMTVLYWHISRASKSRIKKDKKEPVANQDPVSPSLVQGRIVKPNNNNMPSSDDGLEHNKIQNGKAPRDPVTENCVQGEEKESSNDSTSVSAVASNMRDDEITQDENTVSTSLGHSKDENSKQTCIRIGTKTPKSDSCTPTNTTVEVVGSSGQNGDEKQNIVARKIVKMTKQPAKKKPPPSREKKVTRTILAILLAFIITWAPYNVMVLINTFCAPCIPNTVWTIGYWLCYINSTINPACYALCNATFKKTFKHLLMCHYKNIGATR
Chain of human M5 receptor (P08912 whole entry): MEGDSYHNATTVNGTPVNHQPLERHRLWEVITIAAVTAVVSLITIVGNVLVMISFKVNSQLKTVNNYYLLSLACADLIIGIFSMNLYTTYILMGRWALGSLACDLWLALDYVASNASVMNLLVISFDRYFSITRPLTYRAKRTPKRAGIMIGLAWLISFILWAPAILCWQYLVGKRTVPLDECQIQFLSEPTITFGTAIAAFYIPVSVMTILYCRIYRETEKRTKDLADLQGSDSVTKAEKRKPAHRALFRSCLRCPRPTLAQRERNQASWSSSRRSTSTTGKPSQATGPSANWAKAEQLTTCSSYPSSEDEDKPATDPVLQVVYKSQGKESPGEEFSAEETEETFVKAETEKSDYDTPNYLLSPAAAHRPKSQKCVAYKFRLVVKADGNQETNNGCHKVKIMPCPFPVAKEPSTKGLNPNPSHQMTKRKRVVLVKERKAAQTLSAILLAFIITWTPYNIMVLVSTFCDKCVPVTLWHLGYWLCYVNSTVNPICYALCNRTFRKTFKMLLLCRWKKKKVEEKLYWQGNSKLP
Chain of human M3 receptor (P20309 whole entry): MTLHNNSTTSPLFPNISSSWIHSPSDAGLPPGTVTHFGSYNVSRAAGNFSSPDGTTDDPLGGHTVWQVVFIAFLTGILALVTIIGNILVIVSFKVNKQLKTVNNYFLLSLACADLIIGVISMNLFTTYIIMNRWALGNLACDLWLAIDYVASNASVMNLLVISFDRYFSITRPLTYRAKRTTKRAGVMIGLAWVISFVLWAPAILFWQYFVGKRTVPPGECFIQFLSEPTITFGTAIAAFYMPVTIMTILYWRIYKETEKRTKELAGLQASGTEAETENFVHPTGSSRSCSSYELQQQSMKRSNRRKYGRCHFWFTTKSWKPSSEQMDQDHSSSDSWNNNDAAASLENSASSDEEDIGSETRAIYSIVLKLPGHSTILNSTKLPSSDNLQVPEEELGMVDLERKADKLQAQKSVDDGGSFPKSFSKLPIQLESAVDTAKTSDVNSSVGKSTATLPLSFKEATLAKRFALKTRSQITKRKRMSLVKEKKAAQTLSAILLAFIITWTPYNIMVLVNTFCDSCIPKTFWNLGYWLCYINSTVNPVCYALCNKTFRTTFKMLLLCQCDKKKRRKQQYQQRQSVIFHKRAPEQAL
Chain of human M1 receptor (P11229 whole entry): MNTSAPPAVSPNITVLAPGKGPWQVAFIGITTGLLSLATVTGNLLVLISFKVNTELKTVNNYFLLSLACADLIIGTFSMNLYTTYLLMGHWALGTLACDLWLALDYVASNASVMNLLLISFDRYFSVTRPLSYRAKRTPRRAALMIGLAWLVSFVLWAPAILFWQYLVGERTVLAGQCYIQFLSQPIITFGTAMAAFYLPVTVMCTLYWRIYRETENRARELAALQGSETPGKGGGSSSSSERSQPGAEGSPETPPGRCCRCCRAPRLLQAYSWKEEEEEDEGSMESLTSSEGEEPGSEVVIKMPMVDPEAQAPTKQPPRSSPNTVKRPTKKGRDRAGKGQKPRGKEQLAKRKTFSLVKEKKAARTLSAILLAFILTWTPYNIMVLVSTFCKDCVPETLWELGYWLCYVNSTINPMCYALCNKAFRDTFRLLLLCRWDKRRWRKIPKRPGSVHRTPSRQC
Chain of human M4 receptor (P08173 whole entry): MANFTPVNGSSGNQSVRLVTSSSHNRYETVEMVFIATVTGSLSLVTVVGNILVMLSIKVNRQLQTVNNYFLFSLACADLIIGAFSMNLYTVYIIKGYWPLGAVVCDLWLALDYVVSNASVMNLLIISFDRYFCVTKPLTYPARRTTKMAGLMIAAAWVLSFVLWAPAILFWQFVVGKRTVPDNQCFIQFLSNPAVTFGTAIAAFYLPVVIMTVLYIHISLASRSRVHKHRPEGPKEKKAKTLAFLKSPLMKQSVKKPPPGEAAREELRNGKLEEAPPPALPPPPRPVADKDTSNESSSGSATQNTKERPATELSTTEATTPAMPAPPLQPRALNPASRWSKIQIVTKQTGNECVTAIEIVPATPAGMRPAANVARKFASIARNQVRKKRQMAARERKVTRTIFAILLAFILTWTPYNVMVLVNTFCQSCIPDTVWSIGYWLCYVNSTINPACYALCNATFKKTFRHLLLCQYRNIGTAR

Compound	Ki (human M3 receptor) [nM]	Ki (human M5 receptor) [nM]	Ki (human M4 receptor) [nM]	Ki (human M2 receptor) [nM]	Ki (human M1 receptor) [nM]
C[C@@H]1CN(c2nccc(C(F)(F)F)n2)CCN1C(=O)NCCC1CCN(Cc2ccccc2)CC1 [5-8, (2R)-N-[2-(1-benzylpiperidin-4-yl)ethyl]-2-methyl-4-[4-(trifluoromethyl)pyrimidin-2-yl]piperazine-1-carboxamide]	100 to 1000	> 1000	< 10	10 to 100	> 1000
C[C@@H]1CN(c2ccc(OC(F)(F)F)c(C#N)c2)CCN1C(=O)NCCC1CCN(Cc2ccccc2)CC1 [3-1, (2R)-N-[2-(1-benzylpiperidin-4-yl)ethyl]-4-[3-cyano-4-(trifluoromethoxy)phenyl]-2-methylpiperazine-1-carboxamide]	> 1000	> 1000	< 10	10 to 100	100 to 1000
C[C@@H]1CN(c2ccc3c(c2)OC(F)(F)O3)CCN1C(=O)NCCC1CCN(Cc2ccccc2)CC1 [4-6, (2R)-N-[2-(1-benzylpiperidin-4-yl)ethyl]-4-(2,2-difluoro-2H-1,3-benzodioxol-5-yl)-2-methylpiperazine-1-carboxamide]		> 1000	< 10	10 to 100	100 to 1000
C[C@H]1CN(c2ccc(OC(F)(F)F)cc2)CCN1C(=O)NCCC1CCN(Cc2ccccc2)CC1 [4-10, (2S)-N-[2-(1-benzylpiperidin-4-yl)ethyl]-2-methyl-4-[4-(trifluoromethoxy)phenyl]piperazine-1-carboxamide]	100 to 1000	100 to 1000	< 10	10 to 100	100 to 1000
C[C@@H]1CN(c2ncc(C(F)(F)F)c(N)n2)CCN1C(=O)NCCC1CCN(Cc2ccccc2)CC1 [21-17, (2R)-4-[4-amino-5-(trifluoromethyl)pyrimidin-2-yl]-2-methyl-N-(2-{1-[α,α-^2H-benzyl]piperidin-4-yl}ethyl)piperazine-1-carboxamide]	10 to 100	100 to 1000	< 10	< 10	
C[C@@H]1CN(c2ncc(C#N)cn2)C[C@H](C)N1C(=O)NCCC1CCN(Cc2ccccc2)CC1 [21-2, (2R,6S)-4-(5-cyanopyrimidin-2-yl)-2,6-dimethyl-N-(2-{1-[α,α-^2H-benzyl]piperidin-4-yl}ethyl)piperazine-1-carboxamide]	> 1000	> 1000	< 10		> 1000
O=C(NCC(O)C1CCN(Cc2ccccc2)CC1)C1CCN(c2ccc(OC(F)(F)F)cc2)CC1 (stereo not shown) [9-71, N-[2-(1-benzylpiperidin-4-yl)-2-hydroxyethyl]-1-[4-(trifluoromethoxy)phenyl]piperidine-4-carboxamide]				100 to 1000	
C[C@@H]1CN(c2ncc(C#N)cn2)C[C@H](C)N1C(=O)NCCC1CCN(Cc2ccccc2)CC1 [21-15, (2R,6S)-4-(5-cyanopyrimidin-2-yl)-2,6-dimethyl-N-(2-{1-[α,α-^2H-benzyl]piperidin-4-yl}ethyl)piperazine-1-carboxamide]	> 1000	> 1000	< 10		> 1000
O=C(NCCC1CCN(Cc2ccccc2)CC1)c1ccc(-c2ccc(OC(F)(F)F)cc2)cc1 [9-70, N-[2-(1-benzylpiperidin-4-yl)ethyl]-4-[4-(trifluoromethoxy)phenyl]benzamide]				100 to 1000	100 to 1000
C[C@@H]1CN(c2ncc(C(F)(F)F)c(N)n2)CCN1C(=O)NCCC1CCN(Cc2ccccc2)CC1 [21-16, (2R)-4-[4-amino-5-(trifluoromethyl)pyrimidin-2-yl]-2-methyl-N-(2-{1-[α,α-^2H-benzyl]piperidin-4-yl}ethyl)piperazine-1-carboxamide]	10 to 100	100 to 1000	< 10	< 10	
C[C@@H]1CN(c2ncc(C(F)(F)F)cn2)CCN1C(=O)NCCC1CCN(Cc2ccccc2)CC1 [21-14, (2R)-2-methyl-N-(2-{1-[α,α-^2H-benzyl]piperidin-4-yl}ethyl)-4-[5-(trifluoromethyl)pyrimidin-2-yl]piperazine-1-carboxamide]	100 to 1000				
O=C(NCCC1CCN(Cc2ccccc2)CC1)C1CCN(c2ccc(OC(F)(F)F)c(F)c2)CC1 [10-44, N-[2-(1-benzylpiperidin-4-yl)ethyl]-1-[3-fluoro-4-(trifluoromethoxy)phenyl]piperidine-4-carboxamide]				100 to 1000	

Results, then the compound that gave them:

Ki (human M3 receptor) [nM]	Ki (human M5 receptor) [nM]	Ki (human M4 receptor) [nM]	Ki (human M2 receptor) [nM]	Ki (human M1 receptor) [nM]	Compound
> 1000	> 1000	< 10	< 10	> 1000	C[C@@H]1CN(c2ncc(C#N)cn2)C[C@H](C)N1C(=O)NCCC1CCN(Cc2cccc(F)c2)CC1 [6-46, (2R,6S)-4-(5-cyanopyrimidin-2-yl)-N-(2-{1-[(3-fluorophenyl)-methyl]piperidin-4-yl}ethyl)-2,6-dimethylpiperazine-1-carboxamide]
> 1000	> 1000	< 10	10 to 100	100 to 1000	C[C@@H]1CN(c2cnc(C(F)(F)F)nc2)CCN1C(=O)NCCC1CCN(Cc2ccccc2)CC1 [4-79, (2R)-N-[2-(1-benzylpiperidin-4-yl)ethyl]-2-methyl-4-[2-(trifluoromethyl)pyrimidin-5-yl]piperazine-1-carboxamide]
100 to 1000	100 to 1000	< 10	10 to 100	100 to 1000	C[C@@H]1CN(c2ccc(OC(F)(F)F)cc2F)CCN1C(=O)NCCC1CCN(Cc2ccccc2)CC1 [10-12, (2R)-N-[2-(1-benzylpiperidin-4-yl)ethyl]-4-[2-fluoro-4-(trifluoromethoxy)phenyl]-2-methylpiperazine-1-carboxamide]
	> 1000	< 10	100 to 1000	100 to 1000	C[C@@H]1CN(c2cc(F)cc(F)c2)CCN1C(=O)NCCC1CCN(Cc2ccccc2)CC1 [4-72, (2R)-N-[2-(1-benzylpiperidin-4-yl)ethyl]-4-(3,5-difluorophenyl)-2-methylpiperazine-1-carboxamide]
	> 1000	< 10	100 to 1000	100 to 1000	C[C@@H]1CN(c2cccc(OC(F)(F)F)c2)CCN1C(=O)NCCC1CCN(Cc2ccccc2)CC1 [4-16, (2R)-N-[2-(1-benzylpiperidin-4-yl)ethyl]-2-methyl-4-[3-(trifluoromethoxy)phenyl]piperazine-1-carboxamide]
> 1000	> 1000		100 to 1000	100 to 1000	C[C@@H]1CN(c2ncc(C#N)c(N)n2)C[C@H](C)N1C(=O)NCCC1CCN(Cc2ccccc2)CC1 [4-54, (2S,6R)-4-(4-amino-5-cyanopyrimidin-2-yl)-N-[2-(1-benzylpiperidin-4-yl)ethyl]-2,6-dimethylpiperazine-1-carboxamide]
		< 10	100 to 1000	100 to 1000	C[C@@H]1CN(c2ncc(C#N)c(N)n2)C[C@H](C)N1C(=O)NCCC1CCN(Cc2ccccc2)CC1 [5-14, (2S,6R)-4-(4-amino-5-cyanopyrimidin-2-yl)-N-[2-(1-benzylpiperidin-4-yl)ethyl]-2,6-dimethylpiperazine-1-carboxamide]
			100 to 1000	100 to 1000	O=C(NCCC1(O)CCN(Cc2ccccc2)CC1)C1CCN(c2ccc(OC(F)(F)F)c(F)c2)CC1 [9-72, N-[2-(1-benzyl-4-hydroxypiperidin-4-yl)ethyl]-1-[3-fluoro-4-(trifluoromethoxy)phenyl]piperidine-4-carboxamide]
	> 1000	< 10	100 to 1000	> 1000	C[C@@H]1CN(c2nccc(C#N)n2)C[C@H](C)N1C(=O)NCCC1CCN(Cc2ccccc2)CC1 [4-14, (2S,6R)-N-[2-(1-benzylpiperidin-4-yl)ethyl]-4-(4-cyanopyrimidin-2-yl)-2,6-dimethylpiperazine-1-carboxamide]
			100 to 1000		O=C(NCCC1CCN(Cc2ccccc2)CC1)C1CCN(c2cc(F)c(F)c(F)c2)CC1 [10-43, N-[2-(1-benzylpiperidin-4-yl)ethyl]-1-(3,4,5-trifluorophenyl)piperidine-4-carboxamide]
			100 to 1000	100 to 1000	CC1CN(c2ccc(OC(F)(F)F)cc2)CCC1C(=O)NCCC1CCN(Cc2ccccc2)CC1 (stereo not shown) [10-42, N-[2-(1-benzylpiperidin-4-yl)ethyl]-3-methyl-1-[4-(trifluoromethoxy)phenyl]piperidine-4-carboxamide]

From patent US11033539B2, “Compounds of formulas (VII), (VIII), (IX), (XI), (XII), (XIII), and (XIV) as muscarinic receptor 4(M4) antagonists for treating neurological diseases” (Neurocrine Biosciences, Inc., priority 2015, dated 2021)
